The test relates to CEM cells HIV-1 protection, formazan growth assay. Nature of the test: NCI AIDS Antiviral Assay. The settings on record: for IC50: measured here: growth of uninfected CEM cells. The essentials: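 Human CEM cells, uninfected and HIV-1-infected, received five drug concentrations, and growth was read by soluble formazan assay. Compounds giving at least 50% protection were retested; reproducible 100% protection defined confirmed active.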

The source made the active and inactive calls.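 How the source made its calls: active means compounds giving half or more protection of infected cells from virus-caused growth loss, again on retest; inactive means the rest.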 Where a SMILES comes first, the peptide text is derived from it. The star is where a group is joined. Cbz = O=C(OCc1ccccc1)*

Consider `CC1=CC(=O)/C(=C/n2c(=S)sc3ccccc32)C(=O)O1`, for which the EC50 was more than 200 µM and the IC50 is more than 200 µM.
On to `CN(/N=C/c1cccc2cccnc12)c1ccccc1`, for which the result was inactive.
As for `[N-]=[N+]=NC1=NNC2(C(=O)N1)c1ccccc1-c1ccccc12`, the EC50 is more than 100 µM and the IC50 is more than 100 µM.
With `COC(=O)/C=C/COCC1C2CCC(=O)C21` (stereo unspecified), the EC50 is more than 151 µM and the IC50 is more than 151 µM.
`CCOC(=O)C1SC(=Nc2ccc(C)c(C)c2)N=C1C` (stereo unspecified): the EC50 was more than 18.2 µM and the IC50 was more than 18.2 µM.
In the case of `O=C1OC(C2OC(=O)c3cc(O)c(O)c(O)c3-c3c(O)c(O)c4oc(=O)c5c(c(O)c(O)c6oc(=O)c3c4c65)-c3c(cc(O)c(O)c3O)C(=O)OCC2O)C2OC(=O)c3c(c(O)c(O)c(O)c3C2O)-c2c1cc(O)c(O)c2O` (stereo unspecified), the EC50 was 1.62 µM and the half-maximal inhibitory concentration (IC50) was 12 µM.
`COC(=O)c1cc(C(=CCCCCCl)c2cc(Cl)c(OC)c(C(=O)OC)c2)cc(Cl)c1OC`: the EC50 was 29.5 µM and the IC50 was more than 200 µM.
For `COc1cc(N)c2c(c1)SC(C)C(=O)N2` (stereo unspecified), the EC50 is more than 200 µM and the IC50 came out at 186 µM.
For the compound `N#Cc1c(-c2ccc([N+](=O)[O-])cc2)c(C#N)c(=O)n(NS(=O)(=O)c2ccccc2)c1-c1ccccc1`, the EC50 is more than 200 µM and the IC50 was 36.3 µM.
In the case of `N#CCCN(c1ccc(C=Nc2ccccc2)cc1)S(=O)(=O)c1ccccc1`, the result was inactive.
For the compound `CC(=O)OC(/C=C/c1ccccc1)=C(OC(C)C)/C1=C(\c2ccccc2)SCCCSC1=O`, the EC50 is more than 200 µM and the IC50 is more than 200 µM.
For the compound `CC12OC3(O)C4C5CC(C6C5C3C61)C42` (stereo unspecified), the outcome was inactive.
Consider `CC(=O)CCCCC(=O)Nc1ccc(CC(NC(=O)OC(C)(C)C)C(=O)NCC(=O)OCc2ccccc2)cc1` (stereo unspecified), for which the EC50 is more than 200 µM and the IC50 stood at 12.9 µM.
For `CC(C)(C)C1CCC2c3c([nH]c4ccccc34)C3C(=O)N(c4ccc(Cl)cc4)C(=O)C3C2C1` (stereo unspecified), the EC50 is more than 200 µM and the IC50 was more than 100 µM.
Take `CN1OC2CCC1CC(OC(c1ccccc1)c1ccccc1)C2` (stereo unspecified): the EC50 was more than 200 µM and the IC50 is more than 200 µM.
For `CCCCC1Sc2cc(OC)cc([N+](=O)[O-])c2NC1=O` (stereo unspecified), the EC50 was more than 200 µM and the IC50 worked out at 61.7 µM.
The matching figures for `CCOC(=O)C1NCCc2c1[nH]c1ccccc21` (stereo unspecified): more than 67.6 µM and 44.7 µM.
With `CS1(=O)=CC(=O)CC(c2ccccc2)C1` (stereo unspecified), the EC50 is more than 1120 µM and the IC50 is more than 1120 µM.
Turning to `COc1ccc([C@H]2Oc3cc(OCc4ccccc4)c(O)cc3[C@@H]2C)c(OC)c1`, the EC50 is more than 200 µM and the IC50 was determined as 38.9 µM.
On to `Cn1ccc2c3c(ccc21)C(N1CCOCC1)=CS(=O)(=O)O3`, for which the result was inactive.
Turning to `[NH-]/N=C(\[O-])c1ccncc1.[NH-]/N=C(\[O-])c1ccncc1.[Ni+2]`, the EC50 is more than 100 µM and the IC50 is more than 100 µM.
As for `Brc1ccc(N2N=NC3CNCC32)cc1` (stereo unspecified), the EC50 is more than 26.9 µM and the IC50 is more than 26.9 µM.
For `COc1cc(OC)nc(-n2c(N)c(C#N)c3ccc([N+](=O)[O-])cc3c2=O)n1`, the EC50 is more than 200 µM and the IC50 was more than 200 µM.
As to `CCCCCCCCCCCCCCCC(=O)OCC(C[As](=O)(O)O)OC(=O)CCCCCCCCCCCCCCC` (stereo unspecified), the EC50 was more than 38 µM and the IC50 is more than 38 µM.
For the compound `O=C1CCN(CCC(F)(F)C(F)(F)C(F)(F)C(F)(F)F)C(=S)N1`, the EC50 was more than 26.3 µM and the IC50 was more than 26.3 µM.
As to `CCOC(=O)CNC(=O)C(NC(=O)C1CCCN1C(=O)OCc1ccccc1)C(C)CC` (stereo not drawn) (Cbz-Pro-Ile-Gly-OEt; configuration not given here), the EC50 is more than 562 µM and the IC50 was 34.7 µM.
`COC(=O)n1c(=O)n(-c2ccccc2)c(=O)n1C(=O)Nc1ccccc1`: the EC50 was more than 200 µM and the IC50 came out at 195 µM.
In the case of `CCCC(=O)N1CCN(c2ccc3c(c2)OC(C)O3)CC1` (stereo unspecified), the EC50 is more than 200 µM and the IC50 was more than 200 µM.
Regarding `CC(C)(C)OC(=O)N1CCCC1=O`, the EC50 is more than 200 µM and the IC50 was more than 200 µM.
For the compound `CCC(C)C(NC(=O)C(CCCN=C(N)N)NC(=O)C(CC(=O)O)NC(=O)C(Cc1cnc[nH]1)NC(=O)C(N)CC(C)C)C(=O)NC(C(=O)NC(CC(C)C)C(=O)NCC(=O)NC(CC(=O)O)C(=O)O)C(C)CC` (stereo unspecified) (H-LHDRIILGD-OH; configuration not given here), the EC50 is more than 58.9 µM and the IC50 is more than 58.9 µM.
As to `CCCCCCCCC(=O)NCCN(CCN)C(=O)CCCCCCCC`, the EC50 was more than 100 µM and the IC50 was found to be 5.5 µM.
In the case of `COC1OC(CO)C(O)C(OC(C)=O)C1NC(=O)N(CCCl)N=O` (stereo unspecified), the EC50 was more than 676 µM and the IC50 amounted to 417 µM.
The matching figures for `CCCCCCCCOC1N(C2CC(N=[N+]=[N-])C(CO)O2)C(=O)NC(=O)[C@]1(C)Br` (stereo partly specified): 0.427 µM and 12.6 µM.
Take `OC1(c2ccccc2)N=C(c2ccccc2)c2ccccc2-n2cccc21` (stereo unspecified): the EC50 is more than 200 µM and the IC50 is more than 200 µM.
For `Cn1c2c(c3ccccc31)CCN(CCCCN1CCN(c3cccc(Cl)c3)CC1)C2=O`, the EC50 is more than 11 µM and the IC50 was more than 11 µM.
With `c1ccc(-c2nc3sc(-c4ccccn4)nc3s2)nc1`, the result was inactive.
For the compound `COC(=O)C(C)(C)C(OP(=O)(OC)OC)=C(C)C`, the EC50 is more than 891 µM and the IC50 is more than 891 µM.
As to `O=C(NS(=O)(=O)Nc1ccc(Cl)cc1)OCc1ccc(Cl)cc1Cl`, the EC50 was more than 200 µM and the concentration for half-maximal inhibition (IC50) was determined as 34.7 µM.
For `O=C([O-])c1ccc2c(c1)-c1nc-2nc2[n-]c(nc3nc(nc4[n-]c(n1)c1ccc(C(=O)[O-])cc41)-c1ccc(C(=O)[O-])cc1-3)c1ccc(C(=O)[O-])cc21.[Gd+3].[K+]`, the EC50 was more than 45.7 µM and the IC50 is more than 45.7 µM.
Turning to `Cc1ccc([N+](=O)[O-])cc1NC(=O)C(=O)Cc1occc(=O)c1O`, the result was inactive.
For `COc1ccc(C(OCC2OC3(COC(c4ccccc4)(c4ccc(OC)cc4)c4ccc(OC)cc4)C(Oc4nc(=O)ccn43)C2O)(c2ccccc2)c2ccc(OC)cc2)cc1` (stereo unspecified), the EC50 is more than 100 µM and the IC50 was more than 100 µM.
As to `CCOC(=O)[C@@]12C(C)=CC(=O)O[C@]1(C)C1C(=O)NC(=O)C12` (stereo partly specified), the EC50 is more than 851 µM and the IC50 is more than 851 µM.
Turning to `C=CC(C)(C)C(=C)C(=O)N(C)c1ccccc1I`, the EC50 was more than 200 µM and the IC50 stood at 89.1 µM.
As for `CC(=O)OCC1OC(n2c(-c3ccc(Cl)cc3)cc(-c3ccccc3)c(C#N)c2=S)C(OC(C)=O)C(OC(C)=O)C1OC(C)=O` (stereo unspecified), the EC50 is more than 200 µM and the IC50 turned out to be 145 µM.
For `CN(Cc1ccccc1)c1nc(=[N+](C)C)ss1`, the outcome was inactive.
Turning to `CC(=O)c1cccc(NC(=O)Nc2ncccc2C)c1`, the EC50 was 182 µM and the IC50 was more than 200 µM.
As for `Cc1cccc2c1CC(Cc1ccccc1C(=O)O)C2=O` (stereo unspecified), the EC50 is more than 200 µM and the IC50 is more than 200 µM.
Take `CCCC(=N\N=C(N)N)/C(C)=N/N=C(N)N`: the EC50 was more than 79.4 µM and the IC50 is more than 79.4 µM.
Take `C=CCNC1=C2C[C@@H](C)C[C@@H](OC)C(OC(=O)CCCN(C)C)[C@H](C)/C=C(\C)[C@@H](OC(N)=O)[C@H](OC)/C=C\C=C(/C)C(=O)NC(=CC1=O)C2=O` (stereo partly specified): the EC50 was more than 200 µM and the IC50 worked out at 11 µM.
As for `C/C(=C\c1ccccc1)n1c(=O)cc(C)n1C`, the EC50 was more than 200 µM and the IC50 is more than 200 µM.
For the compound `CCOC(=O)[C@@]12C(C)=CC(=O)O[C@]1(C)C[C@H]2C#N`, the EC50 was more than 1000 µM and the IC50 was more than 1000 µM.
Turning to `C[Si](C)(C)C1=C2C(=O)c3ccccc3C(=O)C2=C([Si](C)(C)C)[C@@H]2CCCC[C@H]12`, the EC50 was more than 50.1 µM and the IC50 was more than 50.1 µM.
With `CC(=O)/C(=C/c1cccc(C#N)c1)C(=O)c1ccccc1`, the EC50 was more than 36.3 µM and the IC50 was found to be 17.4 µM.
`COc1cc(C2C3C=CC=C4CC=CC(=C43)C3CCC(=O)N32)cc(OC)c1OC` (stereo unspecified): the EC50 is more than 200 µM and the IC50 was more than 200 µM.
For `CC(C)(C)c1cc(/C=C2\CCC/C(=C\c3cc(C(C)(C)C)c(O)c(C(C)(C)C)c3)C2=O)cc(C(C)(C)C)c1O`, the EC50 was more than 200 µM and the IC50 was more than 200 µM.
Take `O=C(O)CCNC(=O)OCc1ccccc1`: the EC50 is more than 200 µM and the IC50 is more than 200 µM.
For the compound `Cc1cn(C2CC(COCc3ccccc3)N(CCO[Si](C)(C)C(C)(C)C)O2)c(=O)[nH]c1=O` (stereo unspecified), the EC50 is more than 200 µM and the IC50 amounted to 11.5 µM.
As for `O=C1CC(=O)NC(=NN2C(=O)/C(=C/c3ccc(Cl)c(Cl)c3)N=C2c2ccccc2)N1`, the EC50 was more than 200 µM and the IC50 was 21.9 µM.
In the case of `CCOC(=O)C(NC(=O)Nc1ccccc1F)(OC)C(F)(F)F` (stereo unspecified), the EC50 was more than 200 µM and the IC50 is more than 200 µM.
On to `CN(C)CC/C(=N\Nc1ccc(Cl)cc1Cl)c1ccccc1`, for which the result was inactive.
With `CCNc1cnc2c(n1)c(=O)n(C)c(=O)n2C`, the EC50 is more than 200 µM and the IC50 was more than 200 µM.
As to `Cc1cc2c(cc1C)n1c(N(C)C)[n+]3ccccc3c1c1c3cccc[n+]3c(N(C)C)n21`, the EC50 is more than 151 µM and the IC50 turned out to be 21.9 µM.
For the compound `O=C1c2cccc3cc([N+](=O)[O-])cc(c23)C(=O)N1Cc1ccccc1`, the EC50 was more than 200 µM and the IC50 was found to be 5.75 µM.
Regarding `O=c1c(SCc2ccc(Cl)cc2Cl)c(SCc2ccc(Cl)cc2Cl)cnn1-c1ccccc1`, the EC50 was more than 46.8 µM and the IC50 is more than 46.8 µM.
`CC(=O)C1C(=O)C(=O)N(c2ccc([N+](=O)[O-])cc2Cl)C1=O` (stereo unspecified): the EC50 was more than 200 µM and the IC50 came out at 95.5 µM.
Consider `CN(C)C(=S)SSC(C)(C)C`, for which the EC50 is more than 200 µM and the IC50 turned out to be 8.32 µM.
Take `c1ccc(-c2ccccn2)nc1`: the EC50 is more than 1580 µM and the IC50 was found to be 27.5 µM.

Broadly, the EC50 is the concentration at which the effect is half-maximal. What is called IC50 is the concentration needed to halve the response being measured. Low values mean inhibition by little substance, high ones a need for much substance.
